Data reported in patent US20120128630A1, “1-(6 MEMBERS AZO-HETEROCYCLIC)-PYRROLIN-2-ONE COMPOUNDS AS INHIBITORS OF HEPATITIS C NS5B POLYMERASE, THE PHARAMACEUTICAL COMPOSITION THEREOF AND THEIR THERAPEUTIC USE” (priority 2009, published 2012).
Where “and” joins values, the source holds several entries; their conditions need not be identical. Equal entries are not always repeated.

Tests used:
HCV replicon Luc Neo ET = assay: Luc Neo ET Replicon assay; format: cell-based, Hepatitis C virus; details: Table 3, titled RdRp enzyme assay results, EC50_Replicon LucneoET, 72 hours with compound, luciferase
Experimental: Human Hepatoma Huh-7 cell line was maintained in DMEM/HAMF-12 supplemented with 10% SVF, 4 mM glutamine, […] Na pyruvate, 1% penistreptomycine. HCV replicon containing Huh-7 cell lines Huh-9.13 and Luc Neo ET (Reblikon) were maintained in DMEM supplemented with 10% SVF, 2 mM glutamine, and 1×NEAA, 100 U/ml penicillin, and 100 μg/ml streptomycine. Replicon cells were maintained in medium supplemented with 1 mg/ml G418 for replicon Huh-9.13 and 0.5 mg/ml for Luc Neo et replicon unless indicated otherwise. Huh-7 and HCV replicon cell lines were maintained at 37° C. and 5% CO2 in a humidified atmosphere. Cells were dissociated at sub confluence with trypsin EDTA 1×.
Replicon Luc Neo ET is a bicistronic expression constructs (Lohmann et al, 1999, Science 285, 110-113). In brief, the structural genes of the HCV genome were replaced by heterologous sequences; the gene encoding the neomycin phosphotransferase (NPT) and the internal ribosome entry site (IRES) of the encephalomyocarditis virus (EMCV). The bicistronic construct is therefore composed of the following elements: HCV-IRES nucleotides 1-389, the NPT gene, the EMCV-IRES directing translation of downstream HCV sequences from NS2 or NS3 up to the authentic 3′ end of the genome. HCV Polyprotein harbours the cell culture adaptive mutations E1202G, T1280I, K1846T. G418-resistance is only possible with cells containing high amounts of replicon.
Cells were dissociated the day before addition of compounds and seeded in 96 well-plates at a final concentration of 77 777.77 cells.ml^−1.well^−2 in 90 μl final volume of culture medium per well and were maintained at 37° C. and 5% CO2 in a humidified atmosphere for 24 hours. 10 μl of compounds to be tested were added 24 hours after seeding. Final concentration of DMSO was 1%. Cells were incubated in the presence of compounds for 72 hours after which expression of firefly luciferase reporter gene was quantified. Briefly, culture medium was removed and cells were lysed by addition of 100 μl of lysis buffer containing 125 mM Tris Phosphate ph 7.8, 10 mM EDTA, 5 mM DTT, 50% glycerol and 5% Triton. Plates were vortexed 10 min at 1300 rpm. Cell lysat was transferred in OpaqueWhite Assay 96 well Flat Bottom plates. 100 μl of luciferin solution 1× were added to each well. Luciferin solution contained 40 mM Tris Phosphate ph 7.8, 0.2 mM EDTA, 67 mM DTT, 2.14 mM MgCl2, 5.4 mM MgSO4, 4.7×10^−4 M luciferin, 5.3×10^−4 M ATP and 2.7×10^−4 M Acetyl co enzyme A. Luminescence was immediately measured with Berthold Microlumat Plus LB 96V luminometer with an integration of 0.5 sec Inhibition was calculated using the formula:
% inhibition=1−[(RLUsample−RLUbackground)/(RLUsignal−RLUbackground)]

HCV NS5B genotype 1b = target: T1, HCV NS5B genotype 1b (Hepatitis C virus genotype 1b, UniProt Q9WMX2); assay: 3D-SCREEN assay (NS5B 3D-Screen platform, luciferase reporter gene); format: cell-based; details: EC50_3DS_NS5B
T1 construct: The protein was expressed with a 21 amino acid C-terminal deletion to remove transmembrane domain; expressed in transfected cells; host or cells: Huh-7
How it was run: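 Huh-7 cells transiently co-transfected with NS5BΔ21/Gal4-DBD, 3D-Sensor peptide I4/VP16 and firefly luciferase reporter. Compounds added 2 h after seeding, 1% DMSO final, 24 h incubation. Luciferase luminescence read; % inhibition relative to no-compound signal.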

[1] = Table 1, 3D-SCREEN assay results, Huh-7 cells, 24 hours with compound, firefly luciferase reporter
[2] = Table 2, titled Replicon assay results

Cc1ccc(N2C(=O)C(O)=C(C(=O)c3ccc(OC(F)(F)F)cc3)C2c2ccc(C(C)C)cc2)nn1 (stereo not drawn) [Example 25, 3-hydroxy-5-(4-isopropyl-phenyl)-1-(6-methyl-pyridazin-3-yl)-4-(4-trifluoromethoxy-benzoyl)-1,5-dihydro-pyrrol-2-one]
EC50 (HCV replicon Luc Neo ET; Hepatitis C virus, 72 h): 0.2 µM
EC50 (HCV NS5B genotype 1b; [1]): 0.5 µM
melting point: 269 °C

Cc1ccc(N2C(=O)C(O)=C(C(=O)c3ccc(C(C)C)cc3)C2c2ccc(C(C)C)cc2)cn1 (stereo not drawn) [Example 48, 3-hydroxy-4-(4-isopropyl-benzoyl)-5-(4-isopropyl-phenyl)-1-(6-methyl-pyridin-3-yl)-1,5-dihydro-pyrrol-2-one]
EC50 (HCV replicon Luc Neo ET): 1 µM
EC50 (HCV NS5B genotype 1b; [1]): 0.7 µM
melting point: 252 to 254 °C

CC(=O)OC1=C(C(=O)c2ccc(C(C)C)cc2)C(c2ccc(C(C)C)cc2)N(c2ccc(C)nn2)C1=O (stereo not drawn) [Example 56, Acetic acid 4-(4-isopropyl-benzoyl)-5-(4-isopropyl-phenyl)-1-(6-methyl-pyridazin-3-yl)-2-oxo-2,5-hydro-1H-pyrrol-3-yl ester]
EC50 (HCV replicon Luc Neo ET; Hepatitis C virus, 72 h): 0.6 µM
EC50 (HCV NS5B genotype 1b; [1]): 0.5 µM
melting point: 215 °C

Cc1ccc(N2C(=O)C(O)=C(C(=O)c3ccc(C(C)C)cc3)C2c2ccc(OC(F)(F)F)cc2)nn1 (stereo not drawn) [Example 61, 3-hydroxy-4-(4-isopropyl-benzoyl)-1-(6-methyl-pyridazin-3-yl)-5-(4-trifluoromethoxy-phenyl)-1,5-dihydro-pyrrol-2-one]
EC50 (HCV replicon Luc Neo ET; Hepatitis C virus, 72 h): 0.1 µM
EC50 (HCV NS5B genotype 1b; [1]): 0.07 µM
melting point: 258 to 260 °C and 262 to 265 °C

COc1ccc(C2C(C(=O)c3ccc(C(C)C)cc3)=C(O)C(=O)N2c2ccc(C)nn2)cc1 (stereo not drawn) [Example 62, 3-hydroxy-4-(4-isopropyl-benzoyl)-5-(4-methoxy-phenyl)-1-(6-methyl-pyridazin-3-yl)-1,5-dihydro-pyrrol-2-one]
EC50 (HCV replicon Luc Neo ET; Hepatitis C virus, 72 h): 0.9 µM
EC50 (HCV NS5B genotype 1b; [1]): 0.8 µM
melting point: 263 to 267 °C

Cc1ccc(N2C(=O)C([O-])=C(C(=O)c3ccc(C(C)C)cc3)C2c2ccc(C(C)C)cc2)cn1.[Na+] (stereo not drawn) [Example 67, Sodium; 4-(4-isopropyl-benzoyl)-5-(4-isopropyl-phenyl)-1-(6-methyl-pyridin-3-yl)-2-oxo-2,5-dihydro-1H-pyrrol-3-olate]
EC50 (HCV replicon Luc Neo ET): < 10 µM
EC50 (HCV NS5B genotype 1b; [1]): 3 µM
melting point: 215 °C

CC(=O)OC1=C(C(=O)c2ccc(C)cc2)C(c2ccc(OC(F)(F)F)cc2)N(c2ccc(C)nn2)C1=O (stereo not drawn) [Example 76, Acetic acid 4-(4-methyl-benzoyl)-1-(6-methyl-pyridazin-3-yl)-2-oxo-5-(4-trifluoromethoxy-phenyl)-2,5-dihydro-1H-pyrrol-3-yl ester]
EC50 (HCV replicon Luc Neo ET; Hepatitis C virus, 72 h): < 10 µM
EC50 (HCV NS5B genotype 1b; [1]): 0.6 µM
melting point: 165 to 166.5 °C

Cc1ccc(N2C(=O)C(O)=C(C(=O)c3ccc(C(C)C)cc3)C2c2ccc(OC(F)(F)F)cc2)cn1 (stereo not drawn) [Example 77, 3-hydroxy-4-(4-isopropyl-benzoyl)-1-(6-methyl-pyridin-3-yl)-5-(4-trifluoromethoxy-phenyl)-1,5-dihydro-pyrrol-2-one]
EC50 (HCV replicon Luc Neo ET; Hepatitis C virus, 72 h): < 10 µM
EC50 (HCV NS5B genotype 1b; [2]): < 1 µM
melting point: 214 to 218 °C

Cc1ccc(N2C(=O)C(O)=C(C(=O)c3ccc(-c4ccccc4)cc3)C2c2ccc(OC(F)(F)F)cc2)nn1 (stereo not drawn) [Example 79, 4-(biphenyl-4-carbonyl)-3-hydroxy-1-(6-methyl-pyridazin-3-yl)-5-(4-trifluoromethoxy-phenyl)-1,5-dihydro-pyrrol-2-one]
EC50 (HCV replicon Luc Neo ET; Hepatitis C virus, 72 h): < 10 µM
EC50 (HCV NS5B genotype 1b; [1]): 0.5 µM
melting point: 226 to 232 °C

Cc1ccc(N2C(=O)C(O)=C(C(=O)c3ccc(N4CCOCC4)cc3)C2c2ccc(OC(F)(F)F)cc2)nn1 (stereo not drawn) [Example 80, 3-hydroxy-1-(6-methyl-pyridazin-3-yl)-4-(4-morpholin-4-yl-benzoyl)-5-(4-trifluoromethoxy-phenyl)-1,5-dihydro-pyrrol-2-one]
EC50 (HCV replicon Luc Neo ET; Hepatitis C virus, 72 h): < 10 µM
EC50 (HCV NS5B genotype 1b; [1]): 2 µM
melting point: 234 °C

Cc1ccc(N2C(=O)C(O)=C(C(=O)c3ccc(C(C)C)cc3)C2c2ccc(OC(F)F)cc2)nn1 (stereo not drawn) [Example 88, 5-(4-difluoromethoxy-phenyl)-3-hydroxy-4-(4-isopropyl-benzoyl)-1-(6-methyl-pyridazin-3-yl)-1,5-dihydro-pyrrol-2-one]
EC50 (HCV replicon Luc Neo ET; Hepatitis C virus, 72 h): < 1 µM
EC50 (HCV NS5B genotype 1b; [2]): < 1 µM
melting point: 263 to 265 °C

Cc1ccc(N2C(=O)C(O)=C(C(=O)c3ccc(C(C)C)cc3)C2c2ccc(OC(C)C)cc2)nn1 (stereo not drawn) [Example 89, 3-hydroxy-5-(4-isopropoxy-phenyl)-4-(4-isopropyl-benzoyl)-1-(6-methyl-pyridazin-3-yl)-1,5-dihydro-pyrrol-2-one]
EC50 (HCV replicon Luc Neo ET; Hepatitis C virus, 72 h): < 10 µM
EC50 (HCV NS5B genotype 1b; [2]): < 10 µM
melting point: 280 to 281 °C

Cc1ccc(N2C(=O)C(O)=C(C(=O)c3ccc(C(C)C)cc3)C2c2ccc(OC(C)(C)C)cc2)nn1 (stereo not drawn) [Example 90, 5-(4-tert-butoxyphenyl)-3-hydroxy-4-(4-isopropyl-benzoyl)-1-(6-methyl-pyridazin-3-yl)-1,5-dihydro-pyrrol-2-one]
EC50 (HCV replicon Luc Neo ET; Hepatitis C virus, 72 h): < 10 µM
EC50 (HCV NS5B genotype 1b; [2]): < 10 µM
melting point: 276 to 277 °C

CCc1ccc(C(=O)C2=C(O)C(=O)N(c3ccc(C)nn3)C2c2ccc(OC(F)(F)F)cc2)cc1 (stereo not drawn) [Example 102, 4-(4-ethyl-benzoyl)-3-hydroxy-1-(6-methyl-pyridazin-3-yl)-5-(4-trifluoromethoxy-phenyl)-1,5-dihydro-pyrrol-2-one]
EC50 (HCV replicon Luc Neo ET; Hepatitis C virus, 72 h): < 1 µM
EC50 (HCV NS5B genotype 1b; [2]): < 1 µM
melting point: 263 to 267 °C

CCOc1ccc(C2C(C(=O)c3ccc(C(C)C)cc3)=C(O)C(=O)N2c2ccc(C)nn2)cc1 (stereo not drawn) [Example 104, 5-(4-ethoxy-phenyl)-3-hydroxy-4-(4-isopropyl-benzoyl)-1-(6-methyl-pyridazin-3-yl)-1,5-dihydro-pyrrol-2-one]
EC50 (HCV replicon Luc Neo ET; Hepatitis C virus, 72 h): < 1 µM
EC50 (HCV NS5B genotype 1b; [2]): < 1 µM
melting point: 279 °C

CCc1ccc(C2C(C(=O)c3ccc(C(C)C)cc3)=C(O)C(=O)N2c2ccc(C)nn2)cc1 (stereo not drawn) [Example 105, 5-(4-ethyl-phenyl)-3-hydroxy-4-(4-isopropyl-benzoyl)-1-(6-methyl-pyridazin-3-yl)-1,5-dihydro-pyrrol-2-one]
EC50 (HCV replicon Luc Neo ET; Hepatitis C virus, 72 h): < 1 µM
EC50 (HCV NS5B genotype 1b; [2]): < 1 µM
melting point: 282 to 284 °C

CC(C)c1ccc(C(=O)C2=C(O)C(=O)N(c3ccc(Sc4ccc([N+](=O)[O-])cc4)nn3)C2c2ccc(OC(F)(F)F)cc2)cc1 (stereo not drawn) [Example 119, 3-hydroxy-4-(4-isopropyl-benzoyl)-1-[6-(4-nitro-phenylsulfanyl)-pyridazin-3-yl]-5-(4-trifluoromethoxy-phenyl)-1,5-dihydro-pyrrol-2-one]
EC50 (HCV replicon Luc Neo ET; Hepatitis C virus, 72 h): < 10 µM
EC50 (HCV NS5B genotype 1b; [2]): < 1 µM
melting point: 194 to 209 °C

Cc1ccc(N2C(=O)C(O)=C(C(=O)c3ccc(C(C)C)cc3)C2c2ccc(OC3CC3)cc2)nn1 (stereo not drawn) [Example 120, 5-(4-cyclopropoxy-phenyl)-3-hydroxy-4-(4-isopropyl-benzoyl)-1-(6-methyl-pyridazin-3-yl)-1,5-dihydro-pyrrol-2-one]
EC50 (HCV replicon Luc Neo ET; Hepatitis C virus, 72 h): < 1 µM
EC50 (HCV NS5B genotype 1b; [2]): < 1 µM
melting point: 285 to 288 °C

Cc1ccc(N2C(=O)C(O)=C(C(=O)c3ccc(C(C)(C)C)cc3)C2c2ccc(OC(F)(F)F)cc2)nn1 (stereo not drawn) [Example 123, 4-(4-tert-butyl-benzoyl)-3-hydroxy-1-(6-methyl-pyridazin-3-yl)-5-(4-trifluoromethoxy-phenyl)-1,5-dihydro-pyrrol-2-one]
EC50 (HCV replicon Luc Neo ET; Hepatitis C virus, 72 h): < 1 µM
EC50 (HCV NS5B genotype 1b; [2]): < 1 µM
melting point: 262 to 265 °C
